From article PMC12155096 (International Journal of Molecular Sciences, 2025) come the findings set out here.

SMILES strings stand for the structures. Counter-ions that a name gives are not always drawn. Like-named read-outs stand apart in the source and are kept apart here.

One data set has as its target CYP3A4 (Homo sapiens, UniProt P08684).
In data set [1] the target is T1, human CYP1A2 (Homo sapiens, UniProt P05177).
T1 sequence (P05177 1-516): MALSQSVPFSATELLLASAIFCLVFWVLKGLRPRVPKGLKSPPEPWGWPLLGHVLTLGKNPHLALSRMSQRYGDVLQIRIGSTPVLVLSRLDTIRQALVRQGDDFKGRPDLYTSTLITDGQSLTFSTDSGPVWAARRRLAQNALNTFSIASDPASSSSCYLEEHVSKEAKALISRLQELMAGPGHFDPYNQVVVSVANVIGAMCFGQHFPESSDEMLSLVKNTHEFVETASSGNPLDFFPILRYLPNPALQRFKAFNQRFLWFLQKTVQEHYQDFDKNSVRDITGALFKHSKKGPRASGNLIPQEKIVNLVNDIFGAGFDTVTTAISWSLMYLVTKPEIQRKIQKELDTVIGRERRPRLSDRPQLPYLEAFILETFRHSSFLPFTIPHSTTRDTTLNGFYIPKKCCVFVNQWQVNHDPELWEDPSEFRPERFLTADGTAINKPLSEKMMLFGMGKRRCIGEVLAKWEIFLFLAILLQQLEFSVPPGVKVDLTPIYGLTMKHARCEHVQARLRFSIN
Kind of data set: biochemical.

The target in another data set is human CYP2C9 (Homo sapiens, UniProt P11712). The data set can be described thus: biochemical.
Sequence of human CYP2C9 (P11712 whole entry): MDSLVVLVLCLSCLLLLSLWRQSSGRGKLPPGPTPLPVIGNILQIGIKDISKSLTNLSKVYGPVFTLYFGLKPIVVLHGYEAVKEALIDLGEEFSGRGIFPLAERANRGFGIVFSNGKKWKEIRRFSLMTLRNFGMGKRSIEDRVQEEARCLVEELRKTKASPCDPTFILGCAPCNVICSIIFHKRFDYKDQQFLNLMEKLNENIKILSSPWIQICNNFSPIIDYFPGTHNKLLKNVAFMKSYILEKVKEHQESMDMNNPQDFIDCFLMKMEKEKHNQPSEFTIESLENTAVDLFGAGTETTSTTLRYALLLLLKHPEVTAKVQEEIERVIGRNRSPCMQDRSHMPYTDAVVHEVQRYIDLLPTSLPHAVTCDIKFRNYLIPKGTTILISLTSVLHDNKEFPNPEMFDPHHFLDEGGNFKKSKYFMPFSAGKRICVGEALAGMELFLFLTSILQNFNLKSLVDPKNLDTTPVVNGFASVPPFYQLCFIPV
Data set [2] concerns the target T2, human CYP2C19 (Homo sapiens, UniProt P33261). Kind of data set: biochemical.
A further data set deals with human CYP2D6 (Homo sapiens, UniProt P10635). The data set can be described thus: biochemical.
Sequence of human CYP2D6 (P10635 whole entry): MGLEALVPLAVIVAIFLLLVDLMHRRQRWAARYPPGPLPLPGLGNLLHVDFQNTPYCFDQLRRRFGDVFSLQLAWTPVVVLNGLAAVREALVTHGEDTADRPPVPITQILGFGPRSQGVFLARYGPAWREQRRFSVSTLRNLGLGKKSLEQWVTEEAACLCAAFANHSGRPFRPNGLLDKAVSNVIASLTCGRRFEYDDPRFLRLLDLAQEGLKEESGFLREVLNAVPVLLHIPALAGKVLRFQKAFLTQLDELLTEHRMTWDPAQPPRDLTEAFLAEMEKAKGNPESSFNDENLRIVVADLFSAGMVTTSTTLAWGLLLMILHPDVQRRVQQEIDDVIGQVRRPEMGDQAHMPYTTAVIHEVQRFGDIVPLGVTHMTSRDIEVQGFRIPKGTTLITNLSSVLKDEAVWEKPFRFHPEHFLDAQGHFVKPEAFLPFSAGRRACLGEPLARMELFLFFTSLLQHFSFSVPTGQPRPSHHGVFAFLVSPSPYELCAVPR
For data set [3], the target named is Photinus pyralis (firefly) luciferase (Photinus pyralis, UniProt P08659). The data set can be described thus: biochemical. It counts as biochemical.
Sequence of Photinus pyralis (firefly) luciferase (P08659 whole entry): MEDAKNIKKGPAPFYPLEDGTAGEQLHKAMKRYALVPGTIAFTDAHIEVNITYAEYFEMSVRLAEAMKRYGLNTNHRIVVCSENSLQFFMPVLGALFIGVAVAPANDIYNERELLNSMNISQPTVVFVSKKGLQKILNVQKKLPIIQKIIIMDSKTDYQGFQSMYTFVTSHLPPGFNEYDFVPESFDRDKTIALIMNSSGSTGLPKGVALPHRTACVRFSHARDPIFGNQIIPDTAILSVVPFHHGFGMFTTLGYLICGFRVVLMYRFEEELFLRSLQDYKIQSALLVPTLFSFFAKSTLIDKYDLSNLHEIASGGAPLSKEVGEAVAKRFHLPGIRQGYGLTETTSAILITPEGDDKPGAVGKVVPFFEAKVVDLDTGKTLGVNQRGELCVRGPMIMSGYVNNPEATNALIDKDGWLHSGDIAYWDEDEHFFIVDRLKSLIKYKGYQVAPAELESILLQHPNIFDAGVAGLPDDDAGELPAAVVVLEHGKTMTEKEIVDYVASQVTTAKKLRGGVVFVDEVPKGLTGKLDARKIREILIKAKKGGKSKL
Data set [4] has as its target T1, human CYP1A2.
The target in data set [5] is T2, human CYP2C19.
The mark [6] stands for this setting: CYP1A2 AC50 (half-maximal activity concentration).
[7] abbreviates: CYP2C9 AC50 (half-maximal activity concentration).
The mark [8] stands for this setting: CYP2C19 AC50 (half-maximal activity concentration).
[9] abbreviates: CYP2D6 AC50 (half-maximal activity concentration).

Sequence of CYP3A4 (P08684 whole entry): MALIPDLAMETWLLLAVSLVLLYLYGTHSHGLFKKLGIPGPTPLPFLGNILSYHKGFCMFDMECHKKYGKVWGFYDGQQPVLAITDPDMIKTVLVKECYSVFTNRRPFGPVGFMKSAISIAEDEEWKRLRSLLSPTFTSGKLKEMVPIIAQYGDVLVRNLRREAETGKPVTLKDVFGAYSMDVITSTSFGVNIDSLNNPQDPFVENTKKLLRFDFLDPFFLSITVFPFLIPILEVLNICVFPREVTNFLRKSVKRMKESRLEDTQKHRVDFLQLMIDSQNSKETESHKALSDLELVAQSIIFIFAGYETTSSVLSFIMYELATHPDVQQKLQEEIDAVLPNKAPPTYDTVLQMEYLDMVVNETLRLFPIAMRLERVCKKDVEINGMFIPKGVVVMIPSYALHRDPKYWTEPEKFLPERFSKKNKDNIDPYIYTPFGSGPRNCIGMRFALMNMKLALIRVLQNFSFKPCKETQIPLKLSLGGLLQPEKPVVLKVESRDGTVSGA
T2 sequence (P33261 whole entry): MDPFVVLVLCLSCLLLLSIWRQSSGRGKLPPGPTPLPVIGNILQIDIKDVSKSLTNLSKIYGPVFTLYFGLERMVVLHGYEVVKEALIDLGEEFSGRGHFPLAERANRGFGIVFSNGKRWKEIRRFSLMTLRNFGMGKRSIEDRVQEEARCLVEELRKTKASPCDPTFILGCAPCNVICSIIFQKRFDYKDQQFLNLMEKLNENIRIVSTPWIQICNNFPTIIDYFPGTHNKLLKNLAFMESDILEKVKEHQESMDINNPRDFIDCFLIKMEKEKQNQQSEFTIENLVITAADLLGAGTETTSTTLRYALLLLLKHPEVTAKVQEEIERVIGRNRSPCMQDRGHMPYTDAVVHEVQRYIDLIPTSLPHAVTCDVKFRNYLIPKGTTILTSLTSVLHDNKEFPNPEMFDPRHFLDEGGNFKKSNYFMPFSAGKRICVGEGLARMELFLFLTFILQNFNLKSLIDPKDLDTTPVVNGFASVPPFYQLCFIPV

By AC50 is commonly meant the midpoint of the concentration-response curve, whichever way the signal moves. `O=c1[nH]sc2ccccc12` [1,2-Benzisothiazolin-3-one]: the “CYP3A4 AC50 (half-maximal activity concentration)” value (from here on “CYP3A4 AC50”) on CYP3A4 is “Inconclusive inhibitor”. Also, the AC50 was 31.7 µM at human CYP1A2 [1] (setting [6]), 34.3 µM at human CYP2C9 (setting [7]), 2.38 µM at human CYP2C19 [2] (setting [8]) and 11.3 µM at human CYP2D6 (setting [9]).

As to `Oc1cc(Cl)c(Cl)c(Cl)c1` [3,4,5-Trichlorophenol], the “CYP3A4 AC50” value at CYP3A4 is on record as “Inconclusive inhibitor”. Moreover, the concentration at half-maximal activity (AC50) at human CYP1A2 [1] (setting [6]) turned out to be 26.1 µM; on human CYP2C9 (setting [7]), 11.1 µM; at human CYP2C19 [2] (setting [8]), 19.5 µM; at human CYP2D6 (setting [9]) it was 29 µM.

In the case of `O=C(c1ccc(O)cc1)c1ccc(O)cc1` [4,4'-Dihydoxybenzophenone], the “CYP3A4 AC50” value at CYP3A4 (mean ± standard deviation from three experiments, activity call in words where no AC50) is given as “Inconclusive inhibitor”. Further, the concentration at half-maximal activity (AC50) turned out to be 38.5 ± 2.51 µM at human CYP1A2 [1], 0.77 ± 0.4 µM at human CYP2C9, 31.8 ± 10.5 µM on human CYP2C19 [2] and 63.5 ± 20.9 µM on human CYP2D6.

As for `O=S(=O)(c1ccccc1)c1ccc(Cl)cc1` [4-Chlorophenyl phenyl sulfone], on CYP3A4, the “CYP3A4 AC50” value is listed as “Inactive”. Moreover, the half-maximal activity concentration (AC50) was 43.2 µM on human CYP1A2 [1], 5.88 µM at human CYP2C9, 4.75 µM on human CYP2C19 [2] and 66.7 µM on human CYP2D6.

In the case of `O=C(c1ccccc1)c1ccc(O)cc1` [4-Hydroxybenzophenone], on CYP3A4, the “CYP3A4 AC50” value was “Inactive”. In addition, the AC50 on human CYP1A2 [1] (setting [6]) amounted to 29 µM; on human CYP2C9 (setting [7]) it was 2.7 µM; at human CYP2C19 [2] (setting [8]) it was 31.7 µM; at human CYP2D6 (setting [9]), 36.1 µM.

Consider `CC(C)(C)c1ccc(O)c(O)c1` [4-tert-Butylcatechol], for which, at CYP3A4, the “CYP3A4 AC50” value is listed as “Inactive”. Besides, the AC50 on human CYP1A2 [1] (setting [6]) amounted to 60 µM; on human CYP2C9 (setting [7]), 73.7 µM; on human CYP2C19 [2] (setting [8]), 13.6 µM; on human CYP2D6 (setting [9]), 9.07 µM.

Usually IC50 stands for the concentration needed to halve the response being measured. Higher therefore signals weaker potency. As for `C=CC[C@]1(O)CC[C@H]2[C@@H]3CCC4=CC(=O)CCC4=C3C=C[C@@]21C` [Altrenogest], the “Luciferase IC50” value in data set [3] is “Inactive”. Besides, the “CYP1A2 IC50” value at human CYP1A2 [4] is reported as “Inactive”. Further, the figures for the IC50 against human CYP2C9, on human CYP2C19 [2] and against human CYP2D6 were 14.8 ± 4.35 µM, 8.15 ± 2.81 µM and 46900 ± 11400 nM, respectively.

`C[C@@H](O[C@H]1OCCN(Cc2n[nH]c(=O)[nH]2)[C@H]1c1ccc(F)cc1)c1cc(C(F)(F)F)cc(C(F)(F)F)c1` [Aprepitant]: the “Luciferase IC50” value in data set [3] was “Inactive”. The “CYP1A2 IC50” value at human CYP1A2 [4] is listed as “Inactive”. Besides, the IC50 against human CYP2C9 (CYP2C9 IC50) was 13.8 µM; against human CYP2C19 [2] (CYP2C19 IC50) it was 23.9 µM; at human CYP2D6 (CYP2D6 IC50) it was 25000 nM.

In the case of `CCN(CC)CCOC(=O)C(C)(c1ccccc1)c1ccccc1` [Aprofene], the “Luciferase IC50” value in data set [3] is “Inactive”. Besides, the “CYP1A2 IC50” value on human CYP1A2 [4] is recorded as “Inactive”. Besides, the half-maximal inhibitory concentration (IC50) on human CYP2C9 is 12.9 µM; on human CYP2C19 [2] (CYP2C19 IC50), 12.3 µM; on human CYP2D6, 1570 nM.

As to `CC(C)COCC(CN(Cc1ccccc1)c1ccccc1)N1CCCC1` (stereo not drawn) [Bepridil], the “Luciferase IC50” value in data set [3] is listed as “Inactive”. Besides, at human CYP1A2 [4], the “CYP1A2 IC50” value is “Inactive”. The compound further yielded a half-maximal inhibitory concentration (IC50) against human CYP2D6 (CYP2D6 IC50) of 60 nM.

Take `CC(NCCC(c1ccccc1)c1ccccc1)c1ccccc1` (stereo not drawn) [Fendiline hydrochloride]: the “Luciferase IC50” value in data set [3] is given as “Inactive”. In addition, on human CYP1A2 [4], the “CYP1A2 IC50” value is on record as “Inactive”. The IC50 turned out to be 15.5 µM against human CYP2C9 (CYP2C9 IC50), 5.65 µM on human CYP2C19 [2] (CYP2C19 IC50) and 230 nM at human CYP2D6 (CYP2D6 IC50).

Regarding `N=C(N)N/N=C/c1c(Cl)cccc1Cl` [Guanabenz], the “CYP2C19 AC50 (half-maximal activity concentration)” value at human CYP2C19 [5] is on record as “Inactive”. Also, the “CYP3A4 AC50” value on CYP3A4 is listed as “Inactive”. For the same compound, the half-maximal activity concentration (AC50) amounted to 14.4 µM on human CYP1A2 [1] (setting [6]), 37.7 µM at human CYP2C9 (setting [7]) and 13.8 µM on human CYP2D6 (setting [9]).

Consider `COC(=O)c1cc(Cl)ccc1[N+](=O)[O-]` [Methyl 5-chloro-2-nitrobenzoate], for which, at CYP3A4, the “CYP3A4 AC50” value is reported as “Inactive”. Besides, the AC50 on human CYP1A2 [1] amounted to 7.13 µM; at human CYP2C9, 49.3 µM; at human CYP2C19 [2], 80 µM; at human CYP2D6, 61.4 µM.
